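Method: 48-hour compound exposure of cells in 96-well plates, five concentrations, linear interpolation of endpoints. Abbreviation: GI50, concentration required for 50% inhibition of growth.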 Active and inactive are the calls of the source. Rule as the data show it: active = GI50 up to about 1.1 µM and inactive = higher.
How the values were obtained:
Assay in all cases: DTP human tumour cell line panel, 48 h
[1] = system: NCI/ADR-RES
[2] = system: COLO 205
[3] = system: SR
[4] = system: SN12C
[5] = system: IGROV-1
[6] = system: NCI-H460
[7] = system: T47D
[8] = system: RXF 393
[9] = system: CAKI-1
[10] = system: SF-268
[11] = system: Hs-578T
[12] = system: U-251
[13] = system: HL-60
[14] = system: HT-29
[15] = system: DU-145
[16] = system: PC-3
[17] = system: SK-MEL-28
[18] = system: OVCAR-3
[19] = system: UACC-257
[20] = system: K562
[21] = system: MDA-N
[22] = system: MDA-MB-231
[23] = system: HCC 2998
[24] = system: HOP-92
[25] = system: SF-295
[26] = system: 786-0
[27] = system: A549
[28] = system: EKVX
[29] = system: UACC-62
[30] = system: HCT-15
[31] = system: BT-549
[32] = system: MOLT-4
[33] = system: SK-OV-3
[34] = system: CCRF-CEM
[35] = system: SW-620
[36] = system: HOP-62
[37] = system: SNB-75
[38] = system: HCT-116
[39] = system: MCF7
[40] = system: MDA-MB-435
[41] = system: TK-10
[42] = system: OVCAR-4
[43] = system: KM12
[44] = system: OVCAR-8
[45] = system: SK-MEL-5
[46] = system: SNB-19
[47] = system: ACHN
[48] = system: NCI-H226
[49] = system: LOX IMVI
[50] = system: M14
[51] = system: A498
[52] = system: NCI-H522
[53] = system: Malme-3M
[54] = system: UO-31
[55] = system: NCI-H23
[56] = system: OVCAR-5
[57] = system: SF-539
[58] = system: RPMI-8226
[59] = system: SK-MEL-2

Which GI50 [1] does the source give for `C(/C=N/c1ccccc1)=C(/Nc1ccccc1)C12CC3CC(CC(C3)C1)C2` here?
Its GI50 is 19.3 µM (inactive).

And the GI50 [2]?
The GI50 was 15.9 µM (inactive).

And the GI50 [3]?
The GI50 was 11 µM (inactive).

What about the GI50 [4] of the same compound?
Its GI50 is 18.8 µM (inactive).

And the GI50 [5]?
The GI50 was 17.6 µM (inactive).

What about the GI50 [6] of the same compound?
The GI50 was 23.6 µM (inactive).

And the GI50 [7]?
Its GI50 is 15.3 µM (inactive).

And the GI50 [8]?
Its GI50 is 17.1 µM (inactive).

What about the GI50 [9] of the same compound?
Its GI50 is 15.4 µM (inactive).

And the GI50 [10]?
Its GI50 is 19.1 µM (inactive).

And the GI50 [11]?
Its GI50 is 37.5 µM (inactive).

What about the GI50 [12] of the same compound?
Its GI50 is 15 µM (inactive).

And the GI50 [13]?
Its GI50 is 12.1 µM (inactive).

And the GI50 [14]?
The GI50 was 12.6 µM (inactive).

What about the GI50 [15] of the same compound?
The GI50 was 19.3 µM (inactive).

What about the GI50 [16] of the same compound?
Its GI50 is 14.9 µM (inactive).

What about the GI50 [17] of the same compound?
The GI50 was 20.5 µM (inactive).

And the GI50 [18]?
The GI50 was 6.85 µM (inactive).

What about the GI50 [19] of the same compound?
The GI50 was 27.9 µM (inactive).

And the GI50 [20]?
The GI50 was 7.23 µM (inactive).

And the GI50 [21]?
Its GI50 is 13.8 µM (inactive).

What about the GI50 [22] of the same compound?
Its GI50 is 16.3 µM (inactive).

And the GI50 [23]?
Its GI50 is 15.8 µM (inactive).

What about the GI50 [24] of the same compound?
The GI50 was 25.2 µM (inactive).

What about the GI50 [25] of the same compound?
Its GI50 is 16.6 µM (inactive).

And the GI50 [26]?
The GI50 was 15 µM (inactive).

What about the GI50 [27] of the same compound?
The GI50 was 24.1 µM (inactive).

And the GI50 [28]?
The GI50 was 20.7 µM (inactive).

What about the GI50 [29] of the same compound?
Its GI50 is 12.1 µM (inactive).

And the GI50 [30]?
The GI50 was 14.1 µM.

What about the GI50 [31] of the same compound?
The GI50 was 16.6 µM (inactive).

What about the GI50 [32] of the same compound?
Its GI50 is 5.73 µM (inactive).

And the GI50 [33]?
The GI50 was 16.4 µM (inactive).

What about the GI50 [34] of the same compound?
The GI50 was 2.72 µM (inactive).

And the GI50 [35]?
Its GI50 is 14 µM (inactive).

And the GI50 [36]?
The GI50 was 19.2 µM (inactive).

And the GI50 [37]?
The GI50 was 20.9 µM (inactive).

What about the GI50 [38] of the same compound?
Its GI50 is 13.2 µM (inactive).

And the GI50 [39]?
The GI50 was 20.5 µM (inactive).

What about the GI50 [40] of the same compound?
Its GI50 is 15.2 µM (inactive).

What about the GI50 [41] of the same compound?
Its GI50 is 21.4 µM (inactive).

What about the GI50 [42] of the same compound?
The GI50 was 16.3 µM (inactive).

What about the GI50 [43] of the same compound?
Its GI50 is 17 µM (inactive).

What about the GI50 [44] of the same compound?
Its GI50 is 20.7 µM (inactive).

And the GI50 [45]?
Its GI50 is 14.7 µM (inactive).

What about the GI50 [46] of the same compound?
The GI50 was 17.2 µM (inactive).

And the GI50 [47]?
The GI50 was 13.6 µM (inactive).

And the GI50 [48]?
Its GI50 is 19.2 µM (inactive).

And the GI50 [49]?
Its GI50 is 12.9 µM (inactive).

And the GI50 [50]?
The GI50 was 12.7 µM (inactive).

What about the GI50 [51] of the same compound?
Its GI50 is 23.8 µM (inactive).

And the GI50 [52]?
Its GI50 is 10.4 µM (inactive).

What about the GI50 [53] of the same compound?
The GI50 was 18.5 µM (inactive).

And the GI50 [54]?
The GI50 was 15.1 µM (inactive).

And the GI50 [55]?
Its GI50 is 18.3 µM (inactive).

And the GI50 [56]?
The GI50 was 15.2 µM (inactive).

Which results are given for `COc1ccc(C(SC2C(O)C(CO)OC2n2ccc(N)nc2=O)(c2ccccc2)c2ccc(OC)cc2)cc1` (centres undefined)?
GI50 [1]: 21 µM (inactive); GI50 [2]: 14.6 µM (inactive); GI50 [3]: 12.4 µM (inactive); GI50 [57]: 18.7 µM (inactive); GI50 [4]: 13.3 µM (inactive); GI50 [5]: 21.9 µM (inactive); GI50 [6]: 12.1 µM (inactive); GI50 [7]: 19.1 µM (inactive); GI50 [8]: 17.5 µM (inactive); GI50 [9]: 31.3 µM (inactive); GI50 [10]: 17.7 µM (inactive); GI50 [11]: 18.4 µM (inactive); GI50 [12]: 15.6 µM (inactive); GI50 [13]: 26.9 µM (inactive); GI50 [14]: 16.9 µM (inactive); GI50 [15]: 18.5 µM (inactive); GI50 [16]: 16.4 µM (inactive); GI50 [17]: 27.4 µM (inactive); GI50 [18]: 18.7 µM (inactive); GI50 [19]: 18.6 µM (inactive); GI50 [20]: 26.4 µM (inactive); GI50 [21]: 10.1 µM (inactive); GI50 [22]: 16 µM (inactive); GI50 [58]: 17.5 µM (inactive); GI50 [23]: 17.1 µM (inactive); GI50 [24]: 17.5 µM (inactive); GI50 [25]: 6.79 µM (inactive); GI50 [26]: 16.8 µM (inactive); GI50 [27]: 18.5 µM (inactive); GI50 [28]: 18.1 µM (inactive); GI50 [29]: 16.1 µM (inactive); GI50 [30]: 17.8 µM; GI50 [31]: 18.2 µM (inactive); GI50 [32]: 19.1 µM (inactive); GI50 [33]: 12.2 µM (inactive); GI50 [34]: 20.2 µM (inactive); GI50 [35]: 23.6 µM (inactive); GI50 [36]: 17.8 µM (inactive); GI50 [37]: 16.5 µM (inactive); GI50 [38]: 14.9 µM (inactive); GI50 [39]: 17.3 µM (inactive); GI50 [40]: 10.9 µM (inactive); GI50 [41]: 26.8 µM (inactive); GI50 [59]: 16.8 µM (inactive); GI50 [42]: 24.8 µM (inactive); GI50 [43]: 19.7 µM (inactive); GI50 [44]: 28.1 µM (inactive); GI50 [45]: 12.9 µM (inactive); GI50 [46]: 16 µM (inactive); GI50 [47]: 31.3 µM (inactive); GI50 [48]: 14.2 µM (inactive); GI50 [49]: 17.7 µM (inactive); GI50 [50]: 12.7 µM (inactive); GI50 [52]: 13.4 µM (inactive); GI50 [53]: 15 µM (inactive); GI50 [54]: 18.5 µM (inactive); GI50 [55]: 22.2 µM (inactive); GI50 [56]: 20.1 µM (inactive)

Source: ChEMBL document CHEMBL1201862, “PubChem BioAssay data set” (2004)
